Measurements reported in publication PMC11470957, “Principles of paralog-specific targeted protein degradation engaging the C-degron E3 KLHDC2” (Nature Communications, 2024).
Where “and” joins values, the source holds several entries; their conditions need not be identical. Equal values may be shown once. Read-outs that look alike come from different tables or passages of the source.

Target: BRD3 (Homo sapiens, UniProt Q15059)
Test: Western blot of BRD3 levels after cellular dosing
Details: for DC50: read-out: BRD3 DC50
[1] = U2OS, read-out: BRD3 level, Western blot quantification (DMSO = 100), Fig S6d, U2OS KO/rescue Dose Response
[2] = read-out: BRD3 level, Western blot quantification (DMSO = 100), Fig S6e, PC3 KO/rescue Dose Response

Chain of BRD3 (Q15059 whole entry): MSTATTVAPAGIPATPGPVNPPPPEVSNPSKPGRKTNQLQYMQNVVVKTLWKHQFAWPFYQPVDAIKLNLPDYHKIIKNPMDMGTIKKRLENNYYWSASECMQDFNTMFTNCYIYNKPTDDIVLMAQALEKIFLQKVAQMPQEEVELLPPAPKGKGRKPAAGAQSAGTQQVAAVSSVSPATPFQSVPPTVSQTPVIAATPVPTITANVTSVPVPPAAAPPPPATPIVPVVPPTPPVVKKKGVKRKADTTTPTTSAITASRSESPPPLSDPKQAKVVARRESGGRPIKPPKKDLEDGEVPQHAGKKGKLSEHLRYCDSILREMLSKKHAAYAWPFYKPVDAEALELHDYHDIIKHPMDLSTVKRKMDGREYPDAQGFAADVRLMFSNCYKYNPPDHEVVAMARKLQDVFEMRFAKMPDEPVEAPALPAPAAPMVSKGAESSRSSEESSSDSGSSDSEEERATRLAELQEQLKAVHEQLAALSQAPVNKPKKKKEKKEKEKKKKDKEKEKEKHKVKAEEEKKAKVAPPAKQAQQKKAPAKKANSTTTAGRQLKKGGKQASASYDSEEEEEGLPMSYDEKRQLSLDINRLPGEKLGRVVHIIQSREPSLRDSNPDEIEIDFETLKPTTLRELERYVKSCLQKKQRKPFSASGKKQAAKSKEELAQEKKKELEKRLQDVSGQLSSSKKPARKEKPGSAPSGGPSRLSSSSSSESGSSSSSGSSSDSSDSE

SMILES: COC(=O)CNC(=O)Cc1csc(-c2ccc3cccc(OCCN4CCN(C(=O)C[C@@H]5N=C(c6ccc(Cl)cc6)c6c(sc(C)c6C)-n6c(C)nnc65)CC4)c3c2)n1 [SJ46420]
- remaining activity at 1 µM (SK-BR-3, 8 h, read-out: BRD3 level, Western blot quantification (DMSO = 100), Fig S6g, SKBR3 Time course, 1 uM, 8hr): 35%
- remaining activity at 5 µM (SK-BR-3, 8 h, read-out: BRD3 level, Western blot quantification (DMSO = 100), Fig S6g, SKBR3 Time course, 5 uM, 8hr): 10.6%
- remaining activity at 5 µM (SK-BR-3, read-out: BRD3 level, Western blot quantification (DMSO = 100), Fig S6i, SKBR3, 5uM): 27.2%
- potency relative to K2-B4-3e (more potent) (SKBR3 4 h, U2OS 8 h): ~ 3 fold and 2-3 fold
- selectivity of BRD3 over BRD4 degradation (SKBR3, 8 hr): ~ 5 fold
- selectivity of BRD3 over BRD4 degradation (SKBR3, 24 hr): ~ 1.5 fold
- reduction of the levels of BRD3 (SKBR3, within two hours): ~ 70%
- BRD3 Dmax (U2OS KO/Rescue, 24 h dose): ~ 100%
- selectivity for BRD3 over BRD2 and BRD4 (DC50) (U2OS KO/rescue): ~ 2.5 fold
- time of maximal degradation (U2OS cells): 8 h
- remaining activity at 5 µM (U2OS, 2 h, read-out: BRD3 level relative to DMSO (100%), U2OS, 5µM, 2hr, Fig S6h): 93 ± 9.8%
- remaining activity at 5 µM (U2OS, 2 h, read-out: BRD3 level, Western blot quantification (DMSO = 100), Fig S6h, U2OS Time course, 5uM, 2hr): 91.4%
- remaining activity at 5 µM (U2OS, 4 h, read-out: BRD3 level relative to DMSO (100%), U2OS, 5µM, 4hr, Fig S6h): 68 ± 9.8%
- remaining activity at 5 µM (U2OS, 4 h, read-out: BRD3 level, Western blot quantification (DMSO = 100), Fig S6h, U2OS Time course, 5uM, 4hr): 71.3%
- remaining activity at 5 µM (U2OS, 8 h, read-out: BRD3 level relative to DMSO (100%), U2OS, 5µM, 8hr, Fig S6i): 41 ± 5.4%
- remaining activity at 5 µM (U2OS, 8 h, read-out: BRD3 level relative to DMSO (100%), U2OS, 5µM, 8hr, Fig S6h): 28 ± 9.8%
- remaining activity at 5 µM (U2OS, 8 h, read-out: BRD3 level, Western blot quantification (DMSO = 100), Fig S6h, U2OS Time course, 5uM, 8hr): 31.8%
- remaining activity at 5 µM (U2OS, 24 h, read-out: BRD3 level relative to DMSO (100%), U2OS DC2KO (KLHDC2 knockout), 5µM, 24 h, Fig 6b): 100 ± 6.8%
- remaining activity at 0.16 µM (U2OS, 24 h, read-out: BRD3 level relative to DMSO (100%), U2OS KO/Rescue, 0.16µM, 24 h, Fig S6d): 85 ± 13%
- remaining activity at 0.31 µM (U2OS, 24 h, read-out: BRD3 level relative to DMSO (100%), U2OS KO/Rescue, 0.31µM, 24 h, Fig S6d): 65 ± 14%
- remaining activity at 0.63 µM (U2OS, 24 h, read-out: BRD3 level relative to DMSO (100%), U2OS KO/Rescue, 0.63µM, 24 h, Fig S6d): 39 ± 8.5%
- remaining activity at 1 µM (U2OS, 24 h, read-out: BRD3 level relative to DMSO (100%), U2OS KO/Rescue, 1µM + co-dosing 1µM MLN4924, 24 h, Fig 6d): 120 ± 1.5%
- remaining activity at 1 µM (U2OS, 24 h, read-out: BRD3 level relative to DMSO (100%), U2OS KO/Rescue, 1µM, 24 h, Fig 6c): 45 ± 3.6%
- remaining activity at 1 µM (U2OS, 24 h, read-out: BRD3 level relative to DMSO (100%), U2OS KO/Rescue, 1µM, 24 h, Fig 6d): 25 ± 8.2%
- remaining activity at 1.3 µM (U2OS, 24 h, read-out: BRD3 level relative to DMSO (100%), U2OS KO/Rescue, 1.3µM, 24 h, Fig S6d): 12 ± 1.8%
- remaining activity at 2.5 µM (U2OS, 24 h, read-out: BRD3 level relative to DMSO (100%), U2OS KO/Rescue, 2.5µM, 24 h, Fig S6d): 0.77 ± 0.16%
- remaining activity at 5 µM (U2OS, 24 h, read-out: BRD3 level relative to DMSO (100%), U2OS KO/Rescue, 5µM, 24 h, Fig S6d): 0.34 ± 0.11%
- remaining activity at 5 µM (U2OS, 24 h, read-out: BRD3 level relative to DMSO (100%), U2OS, 5µM, 24 h, Fig 6b): 30.9 ± 4.1%
- remaining activity at 5 µM (U2OS, 24 h, read-out: BRD3 level relative to DMSO (100%), U2OS, 5µM, 24hr, Fig S6h): 41 ± 9.8%
- remaining activity at 5 µM (U2OS, 24 h, read-out: BRD3 level, Western blot quantification (DMSO = 100), Fig S6h, U2OS Time course, 5uM, 24hr): 43.5%
- selectivity of BRD3 over BRD4 degradation (U2OS, 24 hr): ~ 1.4 fold
- remaining activity at 1.59176 µM (U2OS, read-out: BRD3 (DMSO = 100), U2OS KO/Rescue cells, Log SJ46420 (uM) 1.59176, Rep1, Rep2): 95%
- remaining activity at 2.49485 µM (U2OS, read-out: BRD3 (DMSO = 100), U2OS KO/Rescue cells, Log SJ46420 (uM) 2.49485, Rep1, Rep2): 47.6%
- remaining activity at 2.79588 µM (U2OS, read-out: BRD3 (DMSO = 100), U2OS KO/Rescue cells, Log SJ46420 (uM) 2.79588, Rep1, Rep2): 11.4%
- remaining activity at 3.09691 µM (U2OS, read-out: BRD3 (DMSO = 100), U2OS KO/Rescue cells, Log SJ46420 (uM) 3.09691, Rep1, Rep2): 0.66%
- remaining activity at 3.39794 µM (U2OS, read-out: BRD3 (DMSO = 100), U2OS KO/Rescue cells, Log SJ46420 (uM) 3.39794, Rep1, Rep2): 0.34%
- remaining activity at 3.69897 µM (U2OS, read-out: BRD3 (DMSO = 100), U2OS KO/Rescue cells, Log SJ46420 (uM) 3.69897, Rep1, Rep2): 0.161%
- Dmax (U2OS, read-out: BRD3 Dmax, U2OS KO/Rescue, 24 h dose): 99.9%
- remaining activity at 5 µM (U2OS, read-out: BRD3 level, Western blot quantification (DMSO = 100), Fig 6b, U2OS, 5 uM): 33.9%
- remaining activity at 5 µM (U2OS, read-out: BRD3 level, Western blot quantification (DMSO = 100), Fig S6i, U2OS, 5uM): 52.9%
- remaining activity at 0.156 µM (U2OS, read-out: BRD3 level, Western blot quantification (DMSO = 100), Fig S6d, U2OS KO/rescue Dose Response, 0.156 uM): 108%
- remaining activity at 0.313 µM (U2OS, read-out: BRD3 level, Western blot quantification (DMSO = 100), Fig S6d, U2OS KO/rescue Dose Response, 0.313 uM): 70.7%
- remaining activity at 0.625 µM [1]: 29.3%
- remaining activity at 1.25 µM [1]: 11.3%
- remaining activity at 2.5 µM (U2OS, read-out: BRD3 level, Western blot quantification (DMSO = 100), Fig S6d, U2OS KO/rescue Dose Response, 2.5 uM): 5.44%
- stability in cells (from time-course of BRD3 levels between 8 h and 24 h): relatively unstable
- DC50 (22Rv1, 24 h dose): 458 nM
- DC50 (PC3, 24 h dose): 487 nM
- Dmax (read-out: BRD3 Dmax, PC3, 24 h dose): 99.9%
- remaining activity at 5 µM (read-out: BRD3 level, Western blot quantification (DMSO = 100), Fig 6b, KO/Rescue, 5 uM): 105%
- remaining activity at 1 µM (read-out: BRD3 level, Western blot quantification (DMSO = 100), Fig 6c, 1 uM): 43.9%
- remaining activity at 1 µM (read-out: BRD3 level, Western blot quantification (DMSO = 100), Fig 6d, 1 uM): 19%
- remaining activity at 1 µM (read-out: BRD3 level, Western blot quantification (DMSO = 100), Fig 6d, 1uM together with 1uM MLN4924): 120%
- remaining activity at 0.625 µM [2]: 47.6%
- remaining activity at 1.25 µM [2]: 11.4%
- remaining activity at 2.5 µM (read-out: BRD3 level, Western blot quantification (DMSO = 100), Fig S6e, PC3 KO/rescue Dose Response, 2.5 uM): 0.66%
- remaining activity at 5 µM (read-out: BRD3 level, Western blot quantification (DMSO = 100), Fig S6e, PC3 KO/rescue Dose Response, 5 uM): 0.34%
- remaining activity at 10 µM (read-out: BRD3 level, Western blot quantification (DMSO = 100), Fig S6e, PC3 KO/rescue Dose Response, 10uM): 0.161%
- BRD degradation activity in U2OS cells (wild-type U2OS, 24 h dose, Fig 6b): efficiently and selectively targeted BRD3 for degradation
